For assay [1], the target named is T1, Dihydrofolate reductase (Homo sapiens, UniProt P00374).
T1 sequence (P00374 whole entry): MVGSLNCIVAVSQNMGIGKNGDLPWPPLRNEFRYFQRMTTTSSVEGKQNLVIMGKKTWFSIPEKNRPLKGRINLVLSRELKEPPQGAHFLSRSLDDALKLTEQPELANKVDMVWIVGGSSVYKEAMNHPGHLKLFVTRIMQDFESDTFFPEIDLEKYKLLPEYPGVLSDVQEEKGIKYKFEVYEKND
The assay is described as follows: Inhibition of recombinant human DHFR expressed in Escherichia coli Rosetta Gami B (DE3) by spectrophotometric assay.

Assay [2] can be described thus: Inhibition of recombinant Pneumocystis jirovecii DHFR expressed in Escherichia coli Rosetta Gami B (DE3) by spectrophotometric assay.
The target of assay [3] is T2, Dihydrofolate reductase (Pneumocystis carinii, UniProt P16184).
T2 sequence (P16184 whole entry): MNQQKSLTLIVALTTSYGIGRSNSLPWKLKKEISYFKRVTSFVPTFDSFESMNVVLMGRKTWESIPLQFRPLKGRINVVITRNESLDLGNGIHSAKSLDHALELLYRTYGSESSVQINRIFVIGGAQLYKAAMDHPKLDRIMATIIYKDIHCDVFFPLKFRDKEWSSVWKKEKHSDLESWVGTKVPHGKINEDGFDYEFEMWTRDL
Description: Inhibition of recombinant Pneumocystis carinii DHFR expressed in Escherichia coli Rosetta Gami B (DE3) by spectrophotometric assay.

For assay [4], the target named is Dihydrofolate reductase (Pneumocystis carinii, UniProt P16184, K37Q). The assay is described as follows: Inhibition of Pneumocystis carinii DHFR K37Q mutant by spectrophotometric assay.
The nature of assay [5]: Inhibition of Pneumocystis carinii DHFR K37Q/F69N mutant by spectrophotometric assay.
A short description of assay [6]: Inhibition of human DHFR mutant by spectrophotometric assay.
Assay [7] can be described thus: Inhibition of Pneumocystis jirovecii DHFR.
The target in assay [8] is Receptor tyrosine-protein kinase erbB-2 (Homo sapiens, UniProt P04626). The assay is described as follows: Inhibition of ErbB-2 intracellular domain (unknown origin) purified from a baculovirus expression system using Biotin-(amino hexonoic acid)-EEEEYFELVAKKK-CONH2 as substrate after 10 mins by scintillation counting in presence of [gamma-33P]ATP.
In assay [9] the target is Adenosine kinase (Homo sapiens, UniProt P55263). The assay is described as follows: Inhibition of adenosine kinase (unknown origin).

pIC50, pKi: −log10 of the molar value.

Seven compounds from ChEMBL document CHEMBL3407467, “Recent advances in the chemistry and biology of pyridopyrimidines” (Eur J Med Chem, 2015) can be followed below.

By pKi is commonly meant the Ki on a negative log10 scale, so that one unit is a factor of ten. Broadly, the pIC50 is −log10 of the IC50, conventionally taken in molar units.

Chain of Receptor tyrosine-protein kinase erbB-2 (P04626 whole entry, the tested form may be a part): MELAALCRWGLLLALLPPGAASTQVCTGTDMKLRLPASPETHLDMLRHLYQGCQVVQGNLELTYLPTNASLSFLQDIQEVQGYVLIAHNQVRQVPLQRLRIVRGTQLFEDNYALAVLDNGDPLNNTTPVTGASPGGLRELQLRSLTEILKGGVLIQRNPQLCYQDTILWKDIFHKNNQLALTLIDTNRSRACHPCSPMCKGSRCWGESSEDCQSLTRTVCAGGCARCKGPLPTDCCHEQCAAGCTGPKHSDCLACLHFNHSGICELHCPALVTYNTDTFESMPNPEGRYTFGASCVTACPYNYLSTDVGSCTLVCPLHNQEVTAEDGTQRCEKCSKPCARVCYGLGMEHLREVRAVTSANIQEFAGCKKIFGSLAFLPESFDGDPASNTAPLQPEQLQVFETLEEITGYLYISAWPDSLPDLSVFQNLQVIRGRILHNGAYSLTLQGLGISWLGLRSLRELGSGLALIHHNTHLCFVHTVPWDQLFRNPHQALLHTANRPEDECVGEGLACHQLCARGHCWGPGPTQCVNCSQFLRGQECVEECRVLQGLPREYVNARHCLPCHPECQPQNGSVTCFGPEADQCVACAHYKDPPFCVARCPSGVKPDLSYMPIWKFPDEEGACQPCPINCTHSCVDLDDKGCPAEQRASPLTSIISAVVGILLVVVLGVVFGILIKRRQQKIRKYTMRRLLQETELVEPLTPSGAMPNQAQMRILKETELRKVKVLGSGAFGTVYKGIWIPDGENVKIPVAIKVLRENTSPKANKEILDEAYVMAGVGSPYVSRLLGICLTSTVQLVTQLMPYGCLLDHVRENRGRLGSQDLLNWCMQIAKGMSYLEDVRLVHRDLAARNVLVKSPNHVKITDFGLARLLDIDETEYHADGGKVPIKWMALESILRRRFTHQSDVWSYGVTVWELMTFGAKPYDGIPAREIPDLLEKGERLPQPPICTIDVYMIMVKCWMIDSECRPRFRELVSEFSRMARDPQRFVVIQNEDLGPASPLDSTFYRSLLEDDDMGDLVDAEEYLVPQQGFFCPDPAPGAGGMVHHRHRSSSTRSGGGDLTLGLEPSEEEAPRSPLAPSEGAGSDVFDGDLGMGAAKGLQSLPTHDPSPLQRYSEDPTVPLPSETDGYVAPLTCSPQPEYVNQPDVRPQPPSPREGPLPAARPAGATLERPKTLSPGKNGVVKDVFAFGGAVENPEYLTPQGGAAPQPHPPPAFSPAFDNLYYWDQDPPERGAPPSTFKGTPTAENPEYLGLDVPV
Chain of Dihydrofolate reductase (Pneumocystis carinii, UniProt P16184, K37Q) (P16184 whole entry K37Q): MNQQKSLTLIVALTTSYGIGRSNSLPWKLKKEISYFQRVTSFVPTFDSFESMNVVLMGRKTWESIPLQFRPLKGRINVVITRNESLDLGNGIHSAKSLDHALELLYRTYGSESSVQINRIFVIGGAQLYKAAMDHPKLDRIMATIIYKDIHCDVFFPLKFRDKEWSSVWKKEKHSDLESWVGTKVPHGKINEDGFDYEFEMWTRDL
Chain of Adenosine kinase (P55263 whole entry): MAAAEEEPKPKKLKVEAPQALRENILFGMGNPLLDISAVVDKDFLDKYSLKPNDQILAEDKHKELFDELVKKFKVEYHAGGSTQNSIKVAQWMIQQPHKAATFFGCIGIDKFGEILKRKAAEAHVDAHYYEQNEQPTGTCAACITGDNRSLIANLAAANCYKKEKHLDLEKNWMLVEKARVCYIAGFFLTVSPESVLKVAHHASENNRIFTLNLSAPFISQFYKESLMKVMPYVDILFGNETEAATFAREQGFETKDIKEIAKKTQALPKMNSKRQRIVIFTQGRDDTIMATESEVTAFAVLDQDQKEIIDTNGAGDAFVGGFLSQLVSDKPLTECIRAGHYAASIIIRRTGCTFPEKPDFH

Turning to `Nc1nc(N)c2cc(CNc3cc(Cl)ccc3Cl)cnc2n1`, the negative logarithm of the Ki (pKi) in assay [1] is 7.61; in assay [2], 8.57; in assay [3] it was 8.20; in [4] it was 9.59; in [5] it was 9.15; in [6], 9.24.

The compound `CN(c1cc(F)c(F)c(F)c1)c1cnc2nc(N)nc(N)c2c1` showed a negative-log IC50 (pIC50) in assay [7] of 8.38.

For the compound `CN(CCO)c1cc2c(Nc3ccc4c(cnn4Cc4ccccc4)c3)ncnc2cn1`, the pIC50 in assay [8] is 7.52.

As for `[O-][S+]1CCN(Cc2ccc(-c3cc4c(Nc5ccc(OCc6cccc(F)c6)cc5)ncnc4cn3)o2)CC1`, in assay [8], the negative-log IC50 (pIC50) is 7.68. For `CS(=O)(=O)CCNCc1ccc(-c2cc3c(Nc4ccc(OCc5ccccc5)cc4)ncnc3cn2)o1`, in [8], the pIC50 was 7.59. Regarding `Nc1ncnc2nc(-c3ccc(N4CCOCC4)nc3)cc(-c3cccc(Br)c3)c12`, the pIC50 in assay [9] was 8.70.

Regarding `CN(C)c1cc2c(Nc3ccc4c(cnn4Cc4ccccc4)c3)ncnc2cn1` [GW282974X], the negative-log IC50 (pIC50) in [8] was 7.80.
